# Experimental data taken from patent US20250295646A1, “METHODS OF USE OF T-TYPE CALCIUM CHANNEL MODULATORS” (Praxis Precision Medicines, Inc., priority 2022, published 2025).
# System: adult patients with essential tremor
# Assay: Example 16: accelerometer-based (Kinesia ONE) TETRAS upper limb score
# Type: in vivo, human
# Conditions: Part B, baseline upper limb score ≥10; for Accelerometer-Based Upper Limb Score, Change from Baseline, Mean (SD) / Accelerometer-Based Upper Limb Score, Change from Baseline, Median / Accelerometer-Based Upper Limb Score, Mean (SD) / Accelerometer-Based Upper Limb Score, Median / Accelerometer-Based Upper Limb Score, Percentage Change from Baseline in Tremor Amplitude, Mean (SD) / Accelerometer-Based Upper Limb Score, Percentage Change from Baseline in Tremor Amplitude, Median / Accelerometer-Based Upper Limb Score, Change from Randomization, LS Mean (SE) / Accelerometer-Based Upper Limb Score, Change from Randomization, Mean (SD) / Accelerometer-Based Upper Limb Score, Change from Randomization, Median / Accelerometer-Based Upper Limb Score, LS Mean Percentage Change in Tremor Amplitude from Randomization / Accelerometer-Based Upper Limb Score, Percentage Change from Randomization in Tremor Amplitude, Mean (SD) / Accelerometer-Based Upper Limb Score, Percentage Change from Randomization in Tremor Amplitude, Median: Formula (I) arm (N = 4)
# Text: Accelerometer (Kinesia ONE) TETRAS assessments were generally consistent with those conducted at the clinic. Accelerometer upper limb score values are summarized for Part A, the open-label titration phase of Part B, and the randomized withdrawal phase of Part B in Table 37, Table 38, and Table 39, respectively
# [1] = Day 42 Post - dose (Randomization Baseline)
structure (smiles),measurement,setting,value
"CC(C)(C)NC(=O)CN1CCC(CNC(=O)c2cc(F)cc(Cl)c2)CC1 [compound of formula (I), N-((1-(2-(tert-butylamino)-2-oxoethyl)piperidin-4-yl)methyl)-3-chloro-5-fluorobenzamide]","Accelerometer-Based Upper Limb Score, Change from Baseline, Mean (SD)","Day 1, Post - dose",−0.45 (1.476)
same,"Accelerometer-Based Upper Limb Score, Change from Baseline, Median","Day 1, Post - dose",−0.83
same,"Accelerometer-Based Upper Limb Score, Mean (SD)","Day 1, Post - dose",10.46 (2.611)
same,"Accelerometer-Based Upper Limb Score, Median","Day 1, Post - dose",11.50
same,"Accelerometer-Based Upper Limb Score, Percentage Change from Baseline in Tremor Amplitude, Mean (SD)","Day 1, Post - dose",−7.70 (24.390) %
same,"Accelerometer-Based Upper Limb Score, Percentage Change from Baseline in Tremor Amplitude, Median","Day 1, Post - dose",−14.36%
same,"Accelerometer-Based Upper Limb Score, Change from Baseline, Mean (SD)",Day 7,−1.48 (0.814)
same,"Accelerometer-Based Upper Limb Score, Change from Baseline, Median",Day 7,−1.85
same,"Accelerometer-Based Upper Limb Score, Mean (SD)",Day 7,9.67 (3.386)
same,"Accelerometer-Based Upper Limb Score, Median",Day 7,11.10
same,"Accelerometer-Based Upper Limb Score, Percentage Change from Baseline in Tremor Amplitude, Mean (SD)",Day 7,−24.14 (12.303) %
same,"Accelerometer-Based Upper Limb Score, Percentage Change from Baseline in Tremor Amplitude, Median",Day 7,−29.88%
same,"Accelerometer-Based Upper Limb Score, Change from Baseline, Mean (SD)",Day 21,−0.56 (1.181)
same,"Accelerometer-Based Upper Limb Score, Change from Baseline, Median",Day 21,−0.55
same,"Accelerometer-Based Upper Limb Score, Mean (SD)",Day 21,10.35 (3.035)
same,"Accelerometer-Based Upper Limb Score, Median",Day 21,11.48
same,"Accelerometer-Based Upper Limb Score, Percentage Change from Baseline in Tremor Amplitude, Mean (SD)",Day 21,−9.09 (19.622) %
same,"Accelerometer-Based Upper Limb Score, Percentage Change from Baseline in Tremor Amplitude, Median",Day 21,−9.68%
same,"Accelerometer-Based Upper Limb Score, Change from Baseline, Mean (SD)","Day 42, Post - dose",−0.46 (1.605)
same,"Accelerometer-Based Upper Limb Score, Change from Baseline, Median","Day 42, Post - dose",−0.23
same,"Accelerometer-Based Upper Limb Score, Percentage Change from Baseline in Tremor Amplitude, Mean (SD)","Day 42, Post - dose",−6.66 (25.539) %
same,"Accelerometer-Based Upper Limb Score, Percentage Change from Baseline in Tremor Amplitude, Median","Day 42, Post - dose",−3.87%
same,"Accelerometer-Based Upper Limb Score, Change from Baseline, Mean (SD)","Day 42, Pre - dose",0.02 (1.702)
same,"Accelerometer-Based Upper Limb Score, Change from Baseline, Median","Day 42, Pre - dose",0.05
same,"Accelerometer-Based Upper Limb Score, Mean (SD)","Day 42, Pre - dose",10.94 (0.884)
same,"Accelerometer-Based Upper Limb Score, Median","Day 42, Pre - dose",11.23
same,"Accelerometer-Based Upper Limb Score, Percentage Change from Baseline in Tremor Amplitude, Mean (SD)","Day 42, Pre - dose",0.39 (28.120) %
same,"Accelerometer-Based Upper Limb Score, Percentage Change from Baseline in Tremor Amplitude, Median","Day 42, Pre - dose",0.78%
same,"Accelerometer-Based Upper Limb Score, Mean (SD)",[1],10.45 (1.616)
same,"Accelerometer-Based Upper Limb Score, Median",[1],10.88
same,"Accelerometer-Based Upper Limb Score, Change from Baseline, Mean (SD)",Day 56,−0.35 (3.213)
same,"Accelerometer-Based Upper Limb Score, Change from Baseline, Median",Day 56,0.62
same,"Accelerometer-Based Upper Limb Score, Change from Randomization, LS Mean (SE)",Day 56,0.071 (1.3594)
same,"Accelerometer-Based Upper Limb Score, Change from Randomization, Mean (SD)",Day 56,0.11 (1.662)
same,"Accelerometer-Based Upper Limb Score, Change from Randomization, Median",Day 56,0.70
same,"Accelerometer-Based Upper Limb Score, LS Mean Percentage Change in Tremor Amplitude from Randomization",Day 56,1.4%
same,"Accelerometer-Based Upper Limb Score, Mean (SD)",Day 56,10.56 (2.093)
same,"Accelerometer-Based Upper Limb Score, Median",Day 56,10.88
same,"Accelerometer-Based Upper Limb Score, Percentage Change from Baseline in Tremor Amplitude, Mean (SD)",Day 56,−1.64 (43.539) %
same,"Accelerometer-Based Upper Limb Score, Percentage Change from Baseline in Tremor Amplitude, Median",Day 56,9.78%
same,"Accelerometer-Based Upper Limb Score, Percentage Change from Randomization in Tremor Amplitude, Mean (SD)",Day 56,2.97 (26.670) %
same,"Accelerometer-Based Upper Limb Score, Percentage Change from Randomization in Tremor Amplitude, Median",Day 56,12.37%
same,"Accelerometer-Based Upper Limb Score, Change from Randomization, LS Mean (SE) for Difference (Formula (I) - Placebo)",Day 56,−2.321 (1.8339)
same,"Accelerometer-Based Upper Limb Score, Change from Randomization, p-value for LS Mean Difference (Formula (I) - Placebo)",Day 56,0.2614
same,"Accelerometer-Based Upper Limb Score, LS Mean Percentage Change Difference (Formula (I) - Placebo)",Day 56,−35.5%
same,"Accelerometer-Based Upper Limb Score, Change from Baseline, Mean (SD)",Day 70,2.02 (3.694)
same,"Accelerometer-Based Upper Limb Score, Change from Baseline, Median",Day 70,0.35
same,"Accelerometer-Based Upper Limb Score, Change from Randomization, LS Mean (SE)",Day 70,3.223 (1.4066)
same,"Accelerometer-Based Upper Limb Score, Change from Randomization, Mean (SD)",Day 70,3.02 (2.533)
same,"Accelerometer-Based Upper Limb Score, Change from Randomization, Median",Day 70,2.00
same,"Accelerometer-Based Upper Limb Score, LS Mean Percentage Change in Tremor Amplitude from Randomization",Day 70,46.1%
same,"Accelerometer-Based Upper Limb Score, Mean (SD)",Day 70,13.17 (0.862)
same,"Accelerometer-Based Upper Limb Score, Median",Day 70,13.00
same,"Accelerometer-Based Upper Limb Score, Percentage Change from Baseline in Tremor Amplitude, Mean (SD)",Day 70,22.11 (42.165) %
same,"Accelerometer-Based Upper Limb Score, Percentage Change from Baseline in Tremor Amplitude, Median",Day 70,6.50%
same,"Accelerometer-Based Upper Limb Score, Percentage Change from Randomization in Tremor Amplitude, Mean (SD)",Day 70,39.81 (24.948) %
same,"Accelerometer-Based Upper Limb Score, Percentage Change from Randomization in Tremor Amplitude, Median",Day 70,31.87%
